# Assay results as given in publication PMC8648852, “Pyrazoline derivatives as promising novel antischistosomal agents” (Scientific Reports, 2021).
# What was measured:
# S. mansoni adult worm = assay: In vitro antischistosomal assay (viability of ex vivo adult worms); type: cell-based, Schistosoma mansoni; settings: for EC50: 72 h, ex vivo adult schistosomes, brackets = 95% confidence interval; for Death of all worms within 24 h: 25 μM; for Time until all parasites were dead: 50 μM; for Antiparasitic activity in initial screen: 50 µM, after 72 h, adult worms
# Procedure: For biological screening, S. mansoni adult parasites were isolated from the mouse infection model (parasite ex vivo) and all compounds were initially screened at 50 µM. The gold-standard antiparasitic compound praziquantel was used as a positive control and DMSO at 0.5% v/v (representing the highest concentration of solvent) served as a negative control. […] For the remaining compounds tested, no EC50 values could be calculated due to lack of activity at 50 μM. […] In tandem, our findings confirm that pyrazolines have a potent antiparasitic activity. Indeed, few compounds in the literature are active at low concentrations for review see[11],[19]. According to criteria established by the World Health Organization (WHO) for antiparasitic hits, leads, and drug candidates, at the start of a screening campaign a compound should inhibit mobility of helminths in vitro at 10 μg/mL[20], commonly ranging from 30 to 40 μM. Thus, the anthelminthic activity of pyrazolines surpasses criteria established by the WHO.
# (§1) Adult schistosomes (BH strain) were isolated from infected mice and cultured in RPMI medium + 10% fetal calf serum and 100 U/mL penicillin and 100 μg/mL streptomycin in a 24-well culture plate (Corning, New York, NY, USA) containing one pair of parasites per well at 37 °C and 5% CO2 (Panasonic Healthcare, Sakata, Oizumi-machi, Japan)[38],[39]. For antischistosomal assay, compounds were dissolved in DMSO (final concentration of 0.5% v/v). Each drug concentration was tested at least in triplicate, and the experiments were repeated three times. The initial concentration of the pyrazolines and praziquantel was 50 μM and 3 μM, respectively, which was serially diluted in medium with twofold dilutions to give six concentrations[40],[41]. The negative control worms were assayed in RPMI 1640 medium and RPMI 1640 with 0.5% DMSO. Parasites were monitored daily at 24, 48 and 72 h under a stereomicroscope (Leica Microsystems EZ4E, Wetzlar, Germany) and an inverted microscope (BEL Engineering INV 100, Monza, MB, Italy). Egg production was evaluated daily as previously described. Parasite viability was averaged and 50% effective concentrations (EC50) were calculated using GraphPad Prism software[24],[43].
# [1] = Cytotoxicity assay (MTT), Vero cells; type: cell-based, African green monkey; settings: African green monkey, Vero cells (African green monkey kidney cells); Vero cells, 72 h, MTT; brackets = 95% confidence interval
# Procedure: (§2) The selectivity index (SI) of a compound is a widely accepted parameter used to express a drug’s in vitro efficacy. Therefore, the cytotoxic effect of these six pyrazolines (16, 18, 19, 21, 22 and 23) was evaluated using a monkey cell line (Vero) and a human cell line (SH-SY5Y). Cells were incubated with each compound at a range of concentrations for determination of cytotoxic concentrations 50% (CC50). […] With the EC50 data collected for schistosomes as well as the CC50 for animal and human cells, the selectivity indices (SI) were determined for each of the pyrazolines tested (Table 1). […] A SI value ≥ 10 is in accordance with the criteria defined by the WHO for antiparasitic hits, leads, and drug candidates. […] Comparatively, the SI values achieved with pyrazolines exceeded those obtained for other relevant heterocyclic compounds with antischistosomal properties[21],[22]. Although the SI values recorded for pyrazolines were more than 10 times below those for the reference drug praziquantel, a SI value ≥ 10 fulfills and exceeds the criteria established by the WHO for potential compounds as anthelmintic agents. The cytotoxicity of compounds was tested against Vero cells (African green monkey kidney cells obtained from the American Type Culture Collection, ATCC; Manassas, VA, USA) and SH-SY5Y cells (human neuroblastoma obtained from Banco de Células do Rio de Janeiro, BCRJ, RJ, Brazil). Cells was cultured in DMEM medium supplemented with 10% fetal calf serum, penicillin (100 U/mL) and streptomycin (100 µg/mL) and 2 mM of L-glutamine at 37 °C and in a 5% CO2 humidified incubator (Panasonic). The DMEM contained 1 or 4 mg/mL glucose for Vero and SH-SY5Y cells, respectively. Cytotoxicity assay was performed as previously described[25],[26]. Briefly, cells were seeded in 96-well plates (Corning) in DMEM medium and incubated with twofold serial drug starting at 200 μM following a 24 h adhesion period at 37 °C in 5% CO2. After 72 h, MTT was added and incubation was continued for another 3 h. The plate was then read using spectrophotometer (Epoch Microplate Spectrophotometer, BioTek Instruments, Winooski, VT, USA) at 595 nm. The assay was conducted in duplicate and repeated three times. Values were expressed as percentage of the control and 50% cytotoxic concentration (CC50) values were calculated. The selectivity indices (SI) of tested compounds were calculated by dividing CC50 values obtained on mammalian cells with EC50 values determined on S. mansoni.
# Vero cells = assay: Cytotoxicity assay (MTT), Vero cells; type: cell-based, African green monkey; settings: CC50 (Vero) divided by EC50 (S. mansoni)
# Procedure: as §2
# [2] = Cytotoxicity assay (MTT), SH-SY5Y cells; type: cell-based, human; settings: human, SH-SY5Y cells (human neuroblastoma); SH-SY5Y cells, 72 h, MTT
# Procedure: as §2
# SH-SY5Y cells = assay: Cytotoxicity assay (MTT), SH-SY5Y cells; type: cell-based, human; settings: CC50 (SH-SY5Y) divided by EC50 (S. mansoni)
# Procedure: as §2
# [3] = system: paired adult schistosomes (S. mansoni); assay: Egg production (fecundity) of paired adult schistosomes in vitro; type: cell-based, Schistosoma mansoni; settings: sublethal concentrations (6.25 μM for 16, 12.5 μM for 19 and 23), compared to control
# Procedure: Based on antischistosomal properties of pyrazolines 16, 18, 19, 21, 22 and 23, the ability of these six compounds to affect fecundity (egg production) was subsequently measured. […] To further investigate this effect on schistosome fecundity, parasites were tested using sublethal concentrations (3.5 μM for compound 22, 6.25 μM for compound 16, and 12.5 μM for compounds 18, 19, 21, and 23).
# as §1
Compound,EC50 (S. mansoni adult worm; Schistosoma mansoni),melting point,CC50 at 72 h [1],CC50 at 72 h [2],other results
"CCCCOc1ccc(C2CC(c3ccccc3)=NN2C(N)=O)cc1 (centres unmarked) [Compound 15, 5-(4-butoxyphenyl)-4,5-dihydro-3-phenylpyrazole-1-carboxamide]",> 50 µM,–,–,–,–
"Cc1ccc(-c2cc(-c3ccc(F)cc3)[nH]n2)cc1 [Compound 32, 5-(4-fluorophenyl)-3-(4-methylphenyl)-1H-pyrazole]",> 50 µM,–,–,–,–
"CCCCCCCCCOc1ccc(C2CC(c3ccccc3)=NN2C(N)=S)cc1 (centres unmarked) [Compound 25, 4,5-dihydro-5-(4-(nonyloxy)phenyl)-3-phenylpyrazole-1-carbothioamide]",> 50 µM,86.4 to 88.2 °C,–,–,–
"NC(=O)N1N=C(c2ccc(F)cc2)CC1c1ccc(Cl)cc1 (centres unmarked) [Compound 22, 5-(4-chlorophenyl)-3-(4-fluorophenyl)-4,5-dihydropyrazole-1-carboxamide]",< 10 µM,–,134 µM,> 200 µM,Death of all worms within 24 h (S. mansoni adult worm): death of all worms; Time until all parasites were dead (S. mansoni adult worm): ≤ 24 h; Antiparasitic activity in initial screen (S. mansoni adult worm): showed antiparasitic activity; EC50 (S. mansoni adult worm): 6.2 µM; Monkey cells SI (selectivity index) (Vero cells): 21.6; Human cells SI (selectivity index) (SH-SY5Y cells): > 32.2
"CCCCCCOc1ccc(C2CC(c3ccccc3)=NN2C(N)=S)cc1 (centres unmarked) [Compound 23, 4,5-dihydro-5-(4-(hexyloxy)phenyl)-3-phenylpyrazole-1-carbothioamide]",28.2 µM,–,> 200 µM,> 200 µM,Reduction in the number of eggs [3]: 30–70%; Time until all parasites were dead (S. mansoni adult worm): 72 h; Antiparasitic activity in initial screen (S. mansoni adult worm): showed antiparasitic activity; Monkey cells SI (selectivity index) (Vero cells): > 7.1; Human cells SI (selectivity index) (SH-SY5Y cells): > 7.1
"CCCCCCCCCOc1ccc(C2CC(c3ccc(F)cc3)=NN2C(N)=S)cc1 (centres unmarked) [Compound 29, 3-(4-fluorophenyl)-4,5-dihydro-5-(4-(nonyloxy)phenyl)pyrazole-1-carbothioamide]",> 50 µM,113 to 114 °C,–,–,–
"Fc1ccc(-c2cc(-c3ccc(Br)cc3)n[nH]2)cc1 [Compound 33, 3-(4-bromophenyl)-5-(4-fluorophenyl)-1H-pyrazole]",> 50 µM,217 to 219 °C,–,–,–
"CN(C)c1ccc(C2CC(c3ccc(F)cc3)=NN2C(N)=O)cc1 (centres unmarked) [Compound 21, 5-(4-(dimethylamino)phenyl)-3-(4-fluorophenyl)-4,5-dihydropyrazole-1-carboxamide]",< 20 µM,–,> 200 µM,> 200 µM,Time until all parasites were dead (S. mansoni adult worm): 48 h; Antiparasitic activity in initial screen (S. mansoni adult worm): showed antiparasitic activity; EC50 (S. mansoni adult worm): 19.8 µM; Monkey cells SI (selectivity index) (Vero cells): > 10.1; Human cells SI (selectivity index) (SH-SY5Y cells): > 10.1
"CCCCCCCCCCCCCCOc1ccc(C2CC(c3ccccc3)=NN2C(N)=S)cc1 (centres unmarked) [Compound 28, 4,5-dihydro-3-phenyl-5-(4-(tetradecyloxy)phenyl)pyrazole-1-carbothioamide]",> 50 µM,97 to 99.2 °C,–,–,–
"CCCCCCCCCCCCOc1ccc(C2CC(c3ccccc3)=NN2C(N)=S)cc1 (centres unmarked) [Compound 27, 5-(4-(dodecyloxy)phenyl)-4,5-dihydro-3-phenylpyrazole-1-carbothioamide]",> 50 µM,94.2 °C,–,–,–
"CCCCCCCCOc1ccc(C2CC(c3ccccc3)=NN2C(N)=S)cc1 (centres unmarked) [Compound 24, 4,5-dihydro-5-(4-(octyloxy)phenyl)-3-phenylpyrazole-1-carbothioamide]",> 50 µM,90.4 to 92.1 °C,–,–,–

# Further lines, with some results ahead:
EC50 (S. mansoni adult worm; Schistosoma mansoni),melting point,Compound,CC50 at 72 h [1],CC50 at 72 h [2],other results
> 50 µM,92.2 to 94.6 °C,"CCCCCCCCCCCCCCOc1ccc(C2CC(c3ccc(F)cc3)=NN2C(N)=S)cc1 (centres unmarked) [Compound 31, 3-(4-fluorophenyl)-4,5-dihydro-5-(4-(tetradecyloxy)phenyl)pyrazole-1-carbothioamide]",–,–,–
> 50 µM,–,"Fc1ccc(-c2cc(-c3ccc(Cl)cc3)n[nH]2)cc1 [Compound 34, 3-(4-chlorophenyl)-5-(4-fluorophenyl)-1H-pyrazole]",–,–,–
< 20 µM,–,"CCCCCCCCCOc1ccc(C2CC(c3ccccc3)=NN2C(N)=O)cc1 (centres unmarked) [Compound 16, 4,5-dihydro-5-(4-(nonyloxy)phenyl)-3-phenylpyrazole-1-carboxamide]",155 µM,> 200 µM,Reduction in the number of eggs [3]: 30–70%; Death of all worms within 24 h (S. mansoni adult worm): death of all worms; Time until all parasites were dead (S. mansoni adult worm): ≤ 24 h; Antiparasitic activity in initial screen (S. mansoni adult worm): showed antiparasitic activity; EC50 (S. mansoni adult worm): 13.8 µM; Monkey cells SI (selectivity index) (Vero cells): 11.2; Human cells SI (selectivity index) (SH-SY5Y cells): > 14.5
> 50 µM,105.5 to 108.4 °C,"CCCCCCCCCCOc1ccc(C2CC(c3ccc(F)cc3)=NN2C(N)=S)cc1 (centres unmarked) [Compound 30, 3-(4-fluorophenyl)-4,5-dihydro-5-(4-(decyloxy)phenyl)pyrazole-1-carbothioamide]",–,–,–
> 50 µM,94.8 to 97.9 °C,"CCCCCCCCCCCCOc1ccc(C2CC(c3ccccc3)=NN2C(N)=O)cc1 (centres unmarked) [Compound 17, 5-(4-(dodecyloxy)phenyl)-4,5-dihydro-3-phenylpyrazole-1-carboxamide]",–,–,–
> 50 µM,96.2 to 98.9 °C,"CCCCCCCCCCOc1ccc(C2CC(c3ccccc3)=NN2C(N)=S)cc1 (centres unmarked) [Compound 26, 5-(4-(decyloxy)phenyl)-4,5-dihydro-3-phenylpyrazole-1-carbothioamide]",–,–,–
< 20 µM,–,"CCCCCCCCCCOc1ccc(C2CC(c3ccc(F)cc3)=NN2C(N)=O)cc1 (centres unmarked) [Compound 18, 5-(4-(decyloxy)phenyl)-3-(4-fluorophenyl)-4,5-dihydropyrazole-1-carboxamide]",159 µM,> 200 µM,Time until all parasites were dead (S. mansoni adult worm): ≤ 24 h; Antiparasitic activity in initial screen (S. mansoni adult worm): showed antiparasitic activity; EC50 (S. mansoni adult worm): 14.6 µM; Monkey cells SI (selectivity index) (Vero cells): 10.9; Human cells SI (selectivity index) (SH-SY5Y cells): > 13.7
0.93 µM,–,"O=C(C1CCCCC1)N1CC(=O)N2CCc3ccccc3C2C1 (centres unmarked) [PZQ, praziquantel, reference compound]",> 200 µM,> 200 µM,–
> 50 µM,176 to 178 °C,"NC(=O)N1N=C(c2ccc(F)cc2)CC1c1ccc(Br)cc1 (centres unmarked) [Compound 20, 5-(4-bromophenyl)-3-(4-fluorophenyl)-4,5-dihydropyrazole-1-carboxamide]",–,–,–
